Experimental data taken from ChEMBL document CHEMBL1144471, “Structure-activity relationships of 2,N(6),5'-substituted adenosine derivatives with potent activity at the A2B adenosine receptor” (J Med Chem, 2007).

Experiments:
[1] = biological target: T1, Adenosine receptor A3 (Homo sapiens) (UniProt P0DMS8); assay: Maximum efficacy at human recombinant adenosine A3 receptor expressed in CHO cells assessed as inhibition of cAMP production at 10 uM relative to NECA; format: functional, cell-based
T1 sequence (whole entry): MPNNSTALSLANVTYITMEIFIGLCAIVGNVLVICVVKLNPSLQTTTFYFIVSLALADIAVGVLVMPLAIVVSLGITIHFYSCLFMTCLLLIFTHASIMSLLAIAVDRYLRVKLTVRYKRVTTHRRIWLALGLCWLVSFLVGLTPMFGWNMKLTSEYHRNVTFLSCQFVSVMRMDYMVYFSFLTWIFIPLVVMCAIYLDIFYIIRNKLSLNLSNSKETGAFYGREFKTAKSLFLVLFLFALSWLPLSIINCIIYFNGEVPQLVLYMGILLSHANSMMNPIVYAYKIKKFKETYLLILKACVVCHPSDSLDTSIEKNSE

[2] = biological target: Adenosine receptor A2a (Homo sapiens, UniProt P29274); assay: biochemical
Adenosine receptor A2a, sequence (P29274 whole entry): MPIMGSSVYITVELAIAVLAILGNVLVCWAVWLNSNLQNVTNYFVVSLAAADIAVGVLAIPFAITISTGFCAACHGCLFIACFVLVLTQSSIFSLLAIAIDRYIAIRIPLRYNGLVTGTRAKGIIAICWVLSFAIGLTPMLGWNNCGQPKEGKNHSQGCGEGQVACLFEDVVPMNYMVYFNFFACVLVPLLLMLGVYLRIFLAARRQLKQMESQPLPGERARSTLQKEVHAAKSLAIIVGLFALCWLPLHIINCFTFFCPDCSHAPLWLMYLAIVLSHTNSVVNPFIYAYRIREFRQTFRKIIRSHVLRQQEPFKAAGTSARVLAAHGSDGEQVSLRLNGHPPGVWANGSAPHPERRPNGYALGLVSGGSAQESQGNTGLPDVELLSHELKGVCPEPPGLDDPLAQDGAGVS
Description: Displacement of [3H]CGS-21680 from human adenosine A2A receptor expressed in CHO cells

[3] = biological target: T2, Adenosine receptor A1 (Homo sapiens, UniProt P30542); assay: Displacement of […] from human adenosine A1 receptor expressed in CHO cells; format: cell-based
T2 sequence (P30542 whole entry): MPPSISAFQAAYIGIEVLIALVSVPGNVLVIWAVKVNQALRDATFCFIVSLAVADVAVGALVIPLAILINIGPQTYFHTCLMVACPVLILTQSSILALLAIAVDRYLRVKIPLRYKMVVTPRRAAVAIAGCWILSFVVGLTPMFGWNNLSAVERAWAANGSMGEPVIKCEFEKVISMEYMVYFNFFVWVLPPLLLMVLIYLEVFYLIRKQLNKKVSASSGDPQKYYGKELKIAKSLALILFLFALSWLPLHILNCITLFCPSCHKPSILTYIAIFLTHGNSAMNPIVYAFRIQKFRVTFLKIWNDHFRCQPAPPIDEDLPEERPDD

[4] = biological target: T3, Adenosine receptor A2b (Homo sapiens) (UniProt P29275); assay: Agonist activity at human adenosine A2B receptor expressed in CHO cells assessed as stimulation of cAMP production at 10 uM; format: functional, cell-based
T3 sequence (whole entry): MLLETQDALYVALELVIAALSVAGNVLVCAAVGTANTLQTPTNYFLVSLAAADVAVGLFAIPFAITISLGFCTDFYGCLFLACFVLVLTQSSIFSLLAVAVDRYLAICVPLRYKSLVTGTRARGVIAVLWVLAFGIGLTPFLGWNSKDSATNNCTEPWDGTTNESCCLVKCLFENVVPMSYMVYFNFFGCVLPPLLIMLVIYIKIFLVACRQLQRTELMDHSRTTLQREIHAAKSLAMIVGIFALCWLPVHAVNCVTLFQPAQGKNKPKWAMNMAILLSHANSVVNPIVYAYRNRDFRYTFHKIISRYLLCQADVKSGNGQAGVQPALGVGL

[5] = biological target: T4, Adenosine receptor A3 (Homo sapiens, UniProt P0DMS8); assay: Displacement of [125I]I-AB-MECA from human adenosine A3 receptor expressed in CHO cells; format: cell-based
T4 sequence (P0DMS8 whole entry): T1 sequence (whole entry)

[6] = biological target: T5, Adenosine receptor A2b (Homo sapiens, UniProt P29275); assay: Agonist activity at human adenosine A2B receptor expressed in CHO cells assessed as stimulation of cAMP production
T5 sequence (P29275 whole entry): T3 sequence (whole entry)

SMILES | Efficacy [1] | Ki [2] | Ki [3] | Activity [4] | Ki [5] | EC50 [6]
Nc1nc(OCCCc2ccccc2)nc2c1ncn2[C@@H]1O[C@H](CO)[C@@H](O)[C@H]1O | 42% | 500 nM | 960 nM | 29% | 66 nM | 
C[C@@H](CCOc1nc(N)c2ncn([C@@H]3O[C@H](CO)[C@@H](O)[C@H]3O)c2n1)c1ccccc1 | 18% | 413 nM | 1560 nM | 13% | 312 nM | 
Nc1nc(OCCc2c[nH]c3ccc(O)cc23)nc2c1ncn2[C@@H]1O[C@H](CO)[C@@H](O)[C@H]1O | 24% | 450 nM | 310 nM |  | 120 nM | 896 nM
Nc1nc(OCCc2ccc3ccccc3c2)nc2c1ncn2[C@@H]1O[C@H](CO)[C@@H](O)[C@H]1O | 45% | 16.1 nM | 141 nM |  | 130 nM | 1440 nM
Nc1nc(OCCc2ccsc2)nc2c1ncn2[C@@H]1O[C@H](CO)[C@@H](O)[C@H]1O | 62% | 13.3 nM | 280 nM | 9% | 101 nM | 
Nc1nc(OCCc2c[nH]c3ccc(I)cc23)nc2c1ncn2[C@@H]1O[C@H](CO)[C@@H](O)[C@H]1O | -5% | 900 nM | 350 nM |  | 110 nM | 1870 nM
COc1ccc2[nH]cc(CCOc3nc(N)c4ncn([C@@H]5O[C@H](CO)[C@@H](O)[C@H]5O)c4n3)c2c1 | -3% | 1400 nM | 1820 nM |  | 360 nM | 1250 nM
CCNC(=O)[C@H]1O[C@@H](n2cnc3c(NC(=N)N)ncnc32)[C@H](O)[C@@H]1O | 100% |  |  |  |  | 
Nc1nc(OCCCCc2ccccc2)nc2c1ncn2[C@@H]1O[C@H](CO)[C@@H](O)[C@H]1O | 37% | 519 nM | 2060 nM | 3% | 352 nM | 

Further molecules by falling Ki [2], results first:

Efficacy [1] | Ki [2] | Ki [3] | Activity [4] | Ki [5] | EC50 [6] | SMILES
37% | 373 nM | 197 nM | 49% | 513 nM |  | Nc1nc(OCCc2cc3ccccc3[nH]2)nc2c1ncn2[C@@H]1O[C@H](CO)[C@@H](O)[C@H]1O
99% | 360 nM | 2640 nM | -1% | 568 nM |  | CCOc1nc(N)c2ncn([C@@H]3O[C@H](CO)[C@@H](O)[C@H]3O)c2n1
58% | 277 nM | 73.6 nM | 40% | 90 nM |  | N=C(N)Nc1nc(OCCc2c[nH]c3ccccc23)nc2c1ncn2[C@@H]1O[C@H](CO)[C@@H](O)[C@H]1O
-8% | 252 nM | 210 nM | 43% | 142 nM |  | Nc1nc(OCCc2c[nH]c3c(Br)cccc23)nc2c1ncn2[C@@H]1O[C@H](CO)[C@@H](O)[C@H]1O
102% | 250 nM | 190 nM |  | 110 nM | 989 nM | CCNC(=O)[C@H]1O[C@@H](n2cnc3c(N)nc(OCCc4c[nH]c5ccccc45)nc32)[C@H](O)[C@@H]1O
50% | 69.3 nM | 312 nM | 64% | 119 nM |  | Nc1nc(OCCc2cccc(F)c2)nc2c1ncn2[C@@H]1O[C@H](CO)[C@@H](O)[C@H]1O
45% | 58.1 nM | 331 nM | 12% | 77.8 nM |  | Nc1nc(OCCc2ccccc2F)nc2c1ncn2[C@@H]1O[C@H](CO)[C@@H](O)[C@H]1O
74% | 56.8 nM | 467 nM | 11% | 112 nM |  | Nc1nc(OCCc2ccc(F)cc2)nc2c1ncn2[C@@H]1O[C@H](CO)[C@@H](O)[C@H]1O
-5% | 39.7 nM | 443 nM | 16% | 260 nM |  | Nc1nc(OCCc2c[nH]c3cccc(Br)c23)nc2c1ncn2[C@@H]1O[C@H](CO)[C@@H](O)[C@H]1O
2% | 29.3 nM |  |  |  | 216 nM | Nc1nc(OCCc2c[nH]c3cc(Cl)ccc23)nc2c1ncn2[C@@H]1O[C@H](CO)[C@@H](O)[C@H]1O
